Reference: ChEMBL document CHEMBL4346660, “Cryptolepine and aromathecin based mimics as potent G-quadruplex-binding, DNA-cleavage and anticancer agents: Design, synthesis and DNA targeting-induced apoptosis” (Eur J Med Chem, 2019)
Active and inactive are the calls of the source. The calls are words filed in the database; no cut-off is given here.

What was measured:
[1] = test system: HepG2; test: Antiproliferative activity against human HepG2 cells assessed as reduction in cell viability incubated for 48 hrs by MTT assay; type: functional, cell-based; conditions: HepG2, 48 h
[2] = test system: L02; test: Cytotoxicity against human HL7702 cells assessed as reduction in cell viability incubated for 48 hrs by MTT assay; type: cell-based; conditions: L02, 48 h
[3] = test system: MGC-803; test: Antiproliferative activity against human MGC803 cells assessed as reduction in cell viability incubated for 48 hrs by MTT assay; type: functional, cell-based; conditions: MGC-803, 48 h
[4] = test system: MGC-803; test: Antitumor activity against human MGC803 cells xenografted in BALB/C mouse assessed as tumor growth inhibition at 6 mg/kg, ip administered every other day for 2 weeks measured during compound dosing relative to control; type: functional; conditions: MGC-803, ip, 336 h, read-out: TGI
[5] = test system: T-24; test: Antiproliferative activity against human T24 cells assessed as reduction in cell viability incubated for 48 hrs by MTT assay; type: functional, cell-based; conditions: T-24, 48 h
[6] = test system: NCI-H460; test: Antiproliferative activity against human NCI-H460 cells assessed as reduction in cell viability incubated for 48 hrs by MTT assay; type: functional, cell-based; conditions: NCI-H460, 48 h
[7] = test system: DNA; test: Binding affinity to Escherichia coli supercoiled pBR322 DNA assessed as DNA intercalation at 5 uM after 3 hrs by ethidium bromide staining-based agarose gel electrophoresis analysis; type: nucleic-acid assay

Row | Structure (SMILES) | IC50 [1] | IC50 [2] | IC50 [3] | inhibition in vivo at 6 mg/kg [4] | IC50 [5] | IC50 [6] | Activity [7]
1 | CC[C@@]1(O)C(=O)OCc2c1cc1n(c2=O)Cc2cc3ccccc3nc2-1 [CAMPTOTHECIN] | 5.69 µM | 2.15 µM | 4.27 µM | 62.3% | 3.09 µM | 5.37 µM | –
2 | COc1cc2c(cc1OC)-c1nc3ccc(Br)cc3c(NCCCN3CCOCC3)c1C2 | 3.97 µM | 5.02 µM | 3.38 µM | – | 2.64 µM | 4.25 µM | –
3 | COc1cc2c(cc1OC)-c1nc3ccc(Cl)cc3c(NCCCN(C)C)c1C2 | 4.18 µM | 2.6 µM | 1.58 µM | – | 2.09 µM | 1.95 µM | –
4 | COc1cc2c(cc1OC)-c1nc3ccc(Br)cc3c(NCCN(C)C)c1C2 | 1.61 µM | 6.95 µM | 2.73 µM | – | 1.53 µM | 2.83 µM | –
5 | CN(C)CCNc1c2c(nc3ccccc13)-c1ccccc1C2 | 2.31 µM | 1.31 µM | 0.93 µM | – | 0.61 µM | 1.23 µM | –
6 | CN(C)CCNc1c2c(nc3ccc(F)cc13)-c1ccccc1C2 | 2.59 µM | 3.22 µM | 1.78 µM | – | 1.15 µM | 2.89 µM | –
7 | COc1cc2c(cc1OC)-c1nc3ccc(C)cc3c(NCCCN3CCOCC3)c1C2 | 7.46 µM | 7.72 µM | 3.5 µM | – | 4.62 µM | 5.64 µM | –
8 | Cc1ccc2nc3c(c(NCCCN4CCOCC4)c2c1)Cc1ccccc1-3 | 1.88 µM | 1.67 µM | 1.42 µM | – | 0.58 µM | 0.89 µM | –
9 | Clc1ccc2nc3c(c(NCCCN4CCOCC4)c2c1)Cc1ccccc1-3 | 5.9 µM | 7.12 µM | 6.89 µM | – | 4.32 µM | 5.21 µM | –
10 | c1ccc2c(c1)Cc1c-2nc2ccccc2c1NCCCN1CCOCC1 | 4.48 µM | 4.73 µM | 1.95 µM | – | 1.43 µM | 4.6 µM | –
11 | CN(C)CCCNc1c2c(nc3ccc(Br)cc13)-c1ccccc1C2 | 3.12 µM | 1.64 µM | 1.8 µM | – | 1.36 µM | 2.02 µM | –
12 | CN(C)CCCNc1c2c(nc3ccc(Cl)cc13)-c1ccccc1C2 | 2.14 µM | 2.3 µM | 1.11 µM | – | 0.91 µM | 2.31 µM | –
13 | Fc1ccc2nc3c(c(NCCCN4CCOCC4)c2c1)Cc1ccccc1-3 | 4.46 µM | 3.05 µM | 2.79 µM | – | 1.9 µM | 6.66 µM | –
14 | CN(C)CCCNc1c2c(nc3ccccc13)-c1ccccc1C2 | 2.6 µM | 0.91 µM | 0.95 µM | – | 0.31 µM | 1.66 µM | –
15 | Cc1ccc2nc3c(c(NCCCN(C)C)c2c1)Cc1ccccc1-3 | 1.19 µM | 0.58 µM | 0.86 µM | – | 0.84 µM | 1.16 µM | –
16 | COc1cc2c(cc1OC)-c1nc3ccccc3c(NCCCN(C)C)c1C2 | 4.6 µM | 4.35 µM | 5.17 µM | – | 2.47 µM | 3.92 µM | –

Row | Structure (SMILES) | IC50 [1] | IC50 [2] | IC50 [3] | inhibition in vivo at 6 mg/kg [4] | IC50 [5] | IC50 [6] | Activity [7]
17 | CN(C)CCNc1c2c(nc3ccc(Cl)cc13)-c1ccccc1C2 | 6.71 µM | 3.6 µM | 3.49 µM | – | 1.74 µM | 4.96 µM | –
18 | COc1cc2c(cc1OC)-c1nc3ccc(Cl)cc3c(NCCN(C)C)c1C2 | 3.12 µM | 2.56 µM | 2.22 µM | – | 2.21 µM | 2.55 µM | –
19 | Brc1ccc2nc3c(c(NCCCN4CCOCC4)c2c1)Cc1ccccc1-3 | 6.32 µM | 5.71 µM | 7.5 µM | – | 9.41 µM | 8.57 µM | –
20 | Cc1ccc2nc3c(c(NCCN(C)C)c2c1)Cc1ccccc1-3 | 1.71 µM | 1.15 µM | 0.92 µM | – | 0.31 µM | 1.03 µM | –
21 | COc1cc2c(cc1OC)-c1nc3ccc(Cl)cc3c(NCCCN3CCOCC3)c1C2 | 7.6 µM | 3.8 µM | 4.13 µM | – | 2.23 µM | 2.4 µM | –
22 | COc1cc2c(cc1OC)-c1nc3ccc(C)cc3c(NCCN(C)C)c1C2 | 2.57 µM | 3.01 µM | 2.46 µM | – | 2.39 µM | 4.99 µM | –
23 | CN(C)CCNc1c2c(nc3ccc(Br)cc13)-c1ccccc1C2 | 4.18 µM | 6.43 µM | 2.98 µM | – | 2.21 µM | 2.8 µM | –
24 | COc1cc2c(cc1OC)-c1nc3ccccc3c(NCCN(C)C)c1C2 | 3.14 µM | 2.06 µM | 1.36 µM | – | 1.82 µM | 3.1 µM | –
25 | COc1cc2c(cc1OC)-c1nc3ccc(Br)cc3c(NCCCN(C)C)c1C2 | 6.38 µM | 7.06 µM | 3.66 µM | – | 4.97 µM | 5.73 µM | –
26 | COc1cc2c(cc1OC)-c1nc3ccc(F)cc3c(NCCCN3CCOCC3)c1C2 | 8.74 µM | 3.71 µM | 3.7 µM | – | 3.74 µM | 6.42 µM | –
27 | COc1cc2c(cc1OC)-c1nc3ccc(F)cc3c(NCCCN(C)C)c1C2 | 5.23 µM | 3.07 µM | 2.11 µM | – | 2.86 µM | 3.52 µM | –
28 | COc1cc2c(cc1OC)-c1nc3ccc(F)cc3c(NCCN(C)C)c1C2 | 1.77 µM | 4.38 µM | 2.35 µM | – | 2.2 µM | 5.73 µM | –
29 | CC[n+]1c(-c2ccccc2)c2cc(N)ccc2c2ccc(N)cc21 | – | – | – | – | – | – | Active
30 | COc1cc2c(cc1OC)-c1nc3ccc(C)cc3c(NCCCN(C)C)c1C2 | 12 µM | 4.94 µM | 5.08 µM | – | 4.64 µM | 5.52 µM | –
31 | COc1cc2c(cc1OC)-c1nc3ccccc3c(NCCCN3CCOCC3)c1C2 | 3.94 µM | 4.97 µM | 2.52 µM | – | 2.77 µM | 5 µM | –
